Like-named read-outs stand apart in the source and are kept apart here.
Legend:
[1] = test system: STAT5 phosphorylation by GMCSF in TF-1 cells; test: JAK cellular assay: STAT5 phosphorylation by GMCSF in TF-1 cells (HTRF); assay type: cell-based; details: Homo sapiens
Summary of the method: (§1)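 Phospho-STAT3 (IL-6, 30 ng/ml) and phospho-STAT5 (GMCSF, 5 ng/ml) read by HTRF in lysates after 20 min cytokine exposure, minus unstimulated-cell background. Cells were serum-starved overnight, plated at 120,000/well, given compound 30 min at 37 °C beforehand; DMSO 0.2% final.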

[2] = test system: IFN-γ production in NK 92 cells by IL-12; test: IFN-γ production in NK 92 cells by IL-12 (ELISA); details: NK92, IFN-γ detection from cell supernatants, read-out: Cell based IC50 (μM) NK-92/IL-12*
Protocol: NK 92 cells were cultured in medium without IL-2 for overnight. Next day, 5000 cells per well NK 92 cells were seeded in a 96 well plate. Compounds were added to cells and incubated for 1 hour. Later IL-12, 10 U/ml was added to cells and incubated for overnight. Supernatant was collected from the wells and IFN-7 secretion was measured by using human IFN-7 ELISA kit. Absorbance was measured at 450 nm in BMG FLUOstar. Background signal obtained from cells which were not activated with cytokines, was subtracted from vehicle controls and compound treated wells.

Recombinant TYK2 = target: T1, Recombinant TYK2 (Homo sapiens, UniProt P29597); test: JAK biochemical assay (LANCE Ultra TR-FRET), TYK2
T1 construct: purchased Carna Biosciences
T1 sequence (P29597 whole entry): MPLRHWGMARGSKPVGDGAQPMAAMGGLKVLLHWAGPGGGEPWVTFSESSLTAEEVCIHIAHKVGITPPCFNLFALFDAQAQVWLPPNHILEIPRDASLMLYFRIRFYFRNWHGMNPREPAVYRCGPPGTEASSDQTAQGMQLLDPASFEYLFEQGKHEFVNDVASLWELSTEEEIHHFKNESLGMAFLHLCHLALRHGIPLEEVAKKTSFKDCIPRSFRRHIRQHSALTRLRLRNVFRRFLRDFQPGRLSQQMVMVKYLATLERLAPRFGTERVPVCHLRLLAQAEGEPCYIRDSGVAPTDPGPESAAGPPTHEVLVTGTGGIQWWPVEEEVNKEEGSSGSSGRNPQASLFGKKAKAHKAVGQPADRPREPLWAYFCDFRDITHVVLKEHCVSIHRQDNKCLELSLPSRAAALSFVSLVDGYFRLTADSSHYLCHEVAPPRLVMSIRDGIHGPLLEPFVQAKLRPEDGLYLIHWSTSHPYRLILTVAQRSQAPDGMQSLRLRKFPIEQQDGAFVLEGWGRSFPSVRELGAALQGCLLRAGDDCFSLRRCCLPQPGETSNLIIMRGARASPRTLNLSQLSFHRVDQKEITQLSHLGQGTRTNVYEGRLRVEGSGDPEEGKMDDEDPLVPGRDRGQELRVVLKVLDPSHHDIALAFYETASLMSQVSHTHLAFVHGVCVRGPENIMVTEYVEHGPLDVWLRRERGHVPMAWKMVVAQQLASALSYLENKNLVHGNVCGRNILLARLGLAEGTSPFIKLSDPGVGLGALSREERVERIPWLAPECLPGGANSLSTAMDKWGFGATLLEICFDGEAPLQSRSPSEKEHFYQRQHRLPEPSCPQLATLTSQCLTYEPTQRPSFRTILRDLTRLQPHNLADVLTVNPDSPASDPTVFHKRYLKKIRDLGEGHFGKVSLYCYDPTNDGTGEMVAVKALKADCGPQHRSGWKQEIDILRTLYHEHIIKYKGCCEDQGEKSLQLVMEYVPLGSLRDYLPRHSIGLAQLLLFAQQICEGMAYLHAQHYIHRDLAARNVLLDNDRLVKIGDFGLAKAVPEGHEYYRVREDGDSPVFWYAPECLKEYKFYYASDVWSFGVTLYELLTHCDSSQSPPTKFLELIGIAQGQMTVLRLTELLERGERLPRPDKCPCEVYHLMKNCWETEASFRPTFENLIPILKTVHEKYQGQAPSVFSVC
Summary of the method: (§2)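 Kinase reactions ran in buffer of 50 mM HEPES pH 7.5 with 1 mM EGTA, 10 mM MgCl2, 2 mM DTT and 0.01% Tween-20, using recombinant enzyme. Phosphorylated ULight substrate was detected by TR-FRET, and compound effect expressed as % inhibition against vehicle.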

Recombinant JAK1 = target: T2, Recombinant JAK1 (Homo sapiens, UniProt P23458); test: JAK biochemical assay (LANCE Ultra TR-FRET), JAK1
T2 construct: purchased Carna Biosciences
T2 sequence (P23458 whole entry): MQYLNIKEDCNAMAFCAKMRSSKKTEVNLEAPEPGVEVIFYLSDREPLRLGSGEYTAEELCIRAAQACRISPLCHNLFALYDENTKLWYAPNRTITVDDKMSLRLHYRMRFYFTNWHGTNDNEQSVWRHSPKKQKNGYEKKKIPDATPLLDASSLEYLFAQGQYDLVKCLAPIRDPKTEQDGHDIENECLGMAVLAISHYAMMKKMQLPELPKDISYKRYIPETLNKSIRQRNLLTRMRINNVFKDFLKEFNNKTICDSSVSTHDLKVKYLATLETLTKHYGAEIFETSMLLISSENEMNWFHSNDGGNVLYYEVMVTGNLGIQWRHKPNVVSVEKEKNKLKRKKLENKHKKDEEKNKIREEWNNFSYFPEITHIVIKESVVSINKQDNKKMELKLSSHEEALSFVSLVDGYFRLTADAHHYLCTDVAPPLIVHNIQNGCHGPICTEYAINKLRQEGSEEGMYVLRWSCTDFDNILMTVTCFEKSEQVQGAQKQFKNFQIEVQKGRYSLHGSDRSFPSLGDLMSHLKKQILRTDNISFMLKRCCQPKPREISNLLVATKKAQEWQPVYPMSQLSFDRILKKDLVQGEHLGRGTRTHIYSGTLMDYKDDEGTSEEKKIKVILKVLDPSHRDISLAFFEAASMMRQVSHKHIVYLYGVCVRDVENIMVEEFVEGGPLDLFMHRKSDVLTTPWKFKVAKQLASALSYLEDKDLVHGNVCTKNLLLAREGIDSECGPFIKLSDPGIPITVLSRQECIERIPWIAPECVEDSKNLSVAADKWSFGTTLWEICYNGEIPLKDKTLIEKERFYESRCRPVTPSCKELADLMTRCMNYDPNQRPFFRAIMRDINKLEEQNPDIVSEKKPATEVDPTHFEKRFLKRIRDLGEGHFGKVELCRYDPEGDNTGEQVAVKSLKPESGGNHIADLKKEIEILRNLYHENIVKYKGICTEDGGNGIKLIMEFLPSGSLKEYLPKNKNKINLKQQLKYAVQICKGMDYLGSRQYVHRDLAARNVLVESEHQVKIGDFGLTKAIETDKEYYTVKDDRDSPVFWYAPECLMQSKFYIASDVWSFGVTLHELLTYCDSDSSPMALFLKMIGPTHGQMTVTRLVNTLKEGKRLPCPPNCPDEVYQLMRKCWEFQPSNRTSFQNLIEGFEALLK
Summary of the method: as §2

Recombinant JAK2 = target: T3, Recombinant JAK2 (Homo sapiens, UniProt O60674); test: JAK biochemical assay (LANCE Ultra TR-FRET), JAK2; details: read-out: Biochemical IC50 (nM) JAK2
T3 construct: purchased Carna Biosciences
T3 sequence (O60674 whole entry): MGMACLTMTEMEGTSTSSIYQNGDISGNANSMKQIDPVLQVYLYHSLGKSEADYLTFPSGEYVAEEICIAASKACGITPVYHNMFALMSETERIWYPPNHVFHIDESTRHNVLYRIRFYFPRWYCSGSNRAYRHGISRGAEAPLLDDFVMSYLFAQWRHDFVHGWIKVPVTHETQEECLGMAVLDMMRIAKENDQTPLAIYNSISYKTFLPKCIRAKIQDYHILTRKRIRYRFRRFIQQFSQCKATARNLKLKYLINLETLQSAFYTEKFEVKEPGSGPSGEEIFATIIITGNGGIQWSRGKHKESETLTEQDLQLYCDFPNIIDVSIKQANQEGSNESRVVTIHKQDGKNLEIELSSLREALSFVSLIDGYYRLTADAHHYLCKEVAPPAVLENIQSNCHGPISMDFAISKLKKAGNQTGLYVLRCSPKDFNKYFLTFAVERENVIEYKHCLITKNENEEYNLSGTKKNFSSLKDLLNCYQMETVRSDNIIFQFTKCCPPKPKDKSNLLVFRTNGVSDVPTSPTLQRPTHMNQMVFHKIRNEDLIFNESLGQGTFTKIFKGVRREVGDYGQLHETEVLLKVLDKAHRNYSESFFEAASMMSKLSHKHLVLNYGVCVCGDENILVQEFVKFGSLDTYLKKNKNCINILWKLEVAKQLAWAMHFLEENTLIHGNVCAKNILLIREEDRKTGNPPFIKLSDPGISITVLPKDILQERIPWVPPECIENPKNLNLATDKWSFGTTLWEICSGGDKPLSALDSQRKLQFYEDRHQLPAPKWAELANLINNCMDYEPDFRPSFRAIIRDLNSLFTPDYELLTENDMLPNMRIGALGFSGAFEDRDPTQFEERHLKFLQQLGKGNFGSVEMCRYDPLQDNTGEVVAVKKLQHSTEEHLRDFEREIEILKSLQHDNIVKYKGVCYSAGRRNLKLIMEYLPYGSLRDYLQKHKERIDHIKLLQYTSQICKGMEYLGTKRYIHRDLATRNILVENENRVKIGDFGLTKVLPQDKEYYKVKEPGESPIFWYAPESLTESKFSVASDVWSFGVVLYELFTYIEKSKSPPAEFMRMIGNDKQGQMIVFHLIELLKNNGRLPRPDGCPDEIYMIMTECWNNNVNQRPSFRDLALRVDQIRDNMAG
Summary of the method: as §2

Recombinant JAK3 = target: T4, Recombinant JAK3 (Homo sapiens, UniProt P52333); test: JAK biochemical assay (LANCE Ultra TR-FRET), JAK3
T4 construct: purchased Carna Biosciences
T4 sequence (P52333 1-1124): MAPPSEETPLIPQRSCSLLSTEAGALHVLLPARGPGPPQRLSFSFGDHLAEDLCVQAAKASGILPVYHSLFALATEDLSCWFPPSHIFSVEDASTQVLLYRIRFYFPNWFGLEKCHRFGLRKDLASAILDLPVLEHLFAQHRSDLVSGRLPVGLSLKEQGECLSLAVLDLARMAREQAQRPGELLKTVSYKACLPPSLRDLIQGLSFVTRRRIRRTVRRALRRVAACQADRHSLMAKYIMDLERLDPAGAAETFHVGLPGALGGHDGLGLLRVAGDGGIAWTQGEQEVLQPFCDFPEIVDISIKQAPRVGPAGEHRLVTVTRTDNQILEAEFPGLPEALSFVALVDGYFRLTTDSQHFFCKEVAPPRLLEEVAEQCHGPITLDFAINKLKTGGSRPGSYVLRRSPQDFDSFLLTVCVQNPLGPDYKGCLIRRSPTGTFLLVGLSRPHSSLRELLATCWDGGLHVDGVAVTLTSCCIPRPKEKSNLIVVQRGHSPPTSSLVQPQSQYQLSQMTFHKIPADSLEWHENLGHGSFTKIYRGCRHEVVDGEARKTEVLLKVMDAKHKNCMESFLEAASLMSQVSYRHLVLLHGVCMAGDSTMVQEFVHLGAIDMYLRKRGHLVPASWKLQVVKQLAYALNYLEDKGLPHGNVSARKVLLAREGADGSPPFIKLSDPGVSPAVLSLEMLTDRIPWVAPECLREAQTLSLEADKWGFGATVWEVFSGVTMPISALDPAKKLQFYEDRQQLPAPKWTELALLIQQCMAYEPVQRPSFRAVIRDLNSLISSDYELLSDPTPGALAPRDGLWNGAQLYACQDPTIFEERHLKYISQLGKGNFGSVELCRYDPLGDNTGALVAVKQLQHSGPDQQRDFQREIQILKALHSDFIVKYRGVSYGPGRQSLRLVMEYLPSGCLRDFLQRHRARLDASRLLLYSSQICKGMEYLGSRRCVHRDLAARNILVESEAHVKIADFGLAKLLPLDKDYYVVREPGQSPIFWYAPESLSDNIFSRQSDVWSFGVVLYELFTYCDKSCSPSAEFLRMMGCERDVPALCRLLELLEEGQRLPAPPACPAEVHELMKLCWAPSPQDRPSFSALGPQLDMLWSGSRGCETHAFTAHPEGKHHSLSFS
Summary of the method: as §2

[3] = test system: STAT3 phosphorylation by IL-6 in TF-1 cells; test: JAK cellular assay: STAT3 phosphorylation by IL-6 in TF-1 cells (HTRF); assay type: cell-based; details: Homo sapiens
Summary of the method: as §1

[4] = test system: STAT5 phosphorylation by IL-2 in HT-2 cells; test: STAT5 phosphorylation by IL-2 in HT-2 cells (HTRF); assay type: cell-based
Summary of the method: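 Readout is HTRF detection of phospho-STAT5 in lysates, corrected for signal from unstimulated cells. Before lysis, HT-2 cells starved in 10% FBS medium received compound for 30 min (0.2% DMSO final, 37 °C), followed by 50 U/ml recombinant human IL-2 for 20 min.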

[5] = test system: collagen induced mouse arthritis model; test: Mouse model of rheumatoid arthritis (collagen induced arthritis); assay type: in vivo; details: orally dosed, QD for 21 days; reference filgotinib
From the text: Rheumatoid arthritis (RA) is an autoimmune disease that can cause joint pain and damage throughout the body. Several cytokines such as IL-6 and IFN-γ activate the Janus kinase/signal transducers and activators of transcription (JAK/STAT) pathway. Inhibition of JAK/STAT pathway is considered as one of the therapeutic options for treatment of rheumatoid arthritis. Rodent models of arthritis can be used to evaluate the therapeutic potential of compounds dosed preventatively or therapeutically. These models include but are not limited to mouse or rat collagen-induced arthritis, rat adjuvant-induced arthritis, and collagen antibody-induced arthritis.
Compounds described herein are tested for JAK/STAT pathway inhibition driven efficacy in collagen induced mouse arthritis model. Compounds were orally dosed, QD for 21 days and at the end of the study, clinical symptoms, body weight and histopathology of ankle and paws were measured. Arthritis score was calculated for the compounds as well as reference standard, filgotinib.

[6] = test system: Imiquimod induced dermatitis in mice; test: Mouse model of Imiquimod induced psoriasis; assay type: in vivo, Female BALB/c mice; details: 3% topical, QD; IMQ induced psoriasis, mice
Protocol: Imiquimod (IMQ) induced dermatitis closely resembles human psoriasis lesions not only with regard to phenotypic and histological characteristics but also in the development of the lesions. IMQ is a ligand for toll-like receptor 7 (TLR7) and TLR8, and is a potent immune activator. […] Migration of activated dermal dendritic cells to lymph nodes in skin triggers a sequence of events leading to late phase of psoriasis. Compounds described herein are tested for JAK inhibition driven efficacy in Imiquimod induced dermatitis in mice.
Female BALB/c mice were topically dosed with 3% cream formulation containing test compounds. After four hours of test compound administration, 5% Imiquimod was applied on back skin and right ear for five days. On day 6, post dosing with test compounds, the severity of psoriasis was monitored and graded following Psoriasis Area and Severity Index (PASI). Efficacies of the compounds were evaluated based on PASI score. Redness, thickness and scaling of back skin and ear were assessed among the groups for scoring.

CS(=O)(=O)CC[C@@H](c1ccc(-n2cc(-c3ccnc4[nH]cnc34)cn2)nc1)C(F)(F)F [Example 1181, 7-(1-(5-((S)-1,1,1-trifluoro-4-(methylsulfonyl)butan-2-yl)pyridin-2-yl)-1H-pyrazol-4-yl)-3H-imidazo[4,5-b]pyridine]
IC50 ([1]; TF-1 cells, GM-CSF stimulation, read-out: Cell based IC50 (μM) TF-1/GM-CSF): > 10 µM
IC50 ([1]; TF-1 cells, GMCSF 5 ng/ml, pSTAT5 HTRF, read-out: Cell Based Assay (μM) TF-1/GMCSF/pSTAT5): > 1 µM
IC50 [2]: > 10 µM
IC50 (Recombinant TYK2; read-out: Biochemical IC50 (nM) TYK2): > 1 nM
IC50 (Recombinant TYK2; recombinant TYK2, TR-FRET, read-out: Biochemical Assay (μM) TYK2): > 1000 nM
IC50 (Recombinant JAK1; read-out: Biochemical IC50 (nM) JAK1): 15 nM
IC50 (Recombinant JAK1; recombinant JAK1, TR-FRET, read-out: Biochemical Assay (μM) JAK1): < 100 nM
IC50 (Recombinant JAK2): 105 nM
IC50 (Recombinant JAK3; read-out: Biochemical IC50 (nM) JAK3): 42 nM
IC50 (Recombinant JAK3; recombinant JAK3, TR-FRET, read-out: Biochemical Assay (μM) JAK3): < 100 nM
IC50 ([3]; TF-1, TF-1 cells, IL-6 30 ng/ml, pSTAT3 HTRF, read-out: Cell Based Assay (μM) TF-1/IL-6/pSTAT3): > 0.5 µM
IC50 ([3]; TF-1, TF-1 cells, IL-6 stimulation, read-out: Cell based IC50 (μM) TF-1/IL-6): 0.35 µM
IC50 ([4]; HT2, HT-2 cells, IL-2 50 U/ml, pSTAT5 HTRF, read-out: Cell Based Assay (μM) HT-2/IL-2/pSTAT5): > 1 µM
IC50 ([4]; HT2, HT-2 cells, IL-2 stimulation, read-out: Cell based IC50 (μM) HT-2/IL-2): 0.9 µM
efficacy (arthritis score) in collagen induced mouse arthritis model [5]: very good efficacy

O=C(Nc1nc2cccc(-c3ccc(CN4CCS(=O)(=O)CC4)cc3)n2n1)C1CC1 [Filgotinib, filgotinib, reference compound]
IC50 ([1]; TF-1, read-out: Cell based IC50 (μM) TF-1/GM-CSF): 3.4 µM
IC50 [2]: > 10 µM
back skin thickness [6]: significant decrease
cumulative psoriasis score compared to vehicle [6]: statistically significant decrease
ear thickness [6]: significant decrease
IC50 ([3]; TF-1, read-out: Cell based IC50 (μM) TF-1/IL-6): 0.6 µM
IC50 ([4]; HT2, read-out: Cell based IC50 (μM) HT-2/IL-2): 0.95 µM

From patent US12516056B2, “Compounds for inhibition of janus kinase 1” (MANKIND PHARMA LTD., priority 2019, dated 2026)
